A short description of the data set: gradient 5% acetonitrile 3 min, to 50% in 2 min, to 85% in 15 min, held 3 min, 100 µL/min. Particulars: column: Zorbax Extend-C18 2.1 x 50 mm; eluents: water / acetonitrile, 0.1% formic acid. The essentials: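 Pure standards were run in mixtures of ~100 molecules by HPLC coupled to a quadrupole time-of-flight mass spectrometer. The column was a Zorbax Extend-C18 (2.1 × 50 mm, 1.8 μm) at 100 μL/min, with water and acetonitrile each containing 0.1% formic acid, in positive and negative ionization mode. Dead and dwell volumes were 40 μL and 900 μL. Retention time was taken from computationally picked adduct peaks, each manually inspected, with data collected over 3 months.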
`Cc1ccc2cc(CCC(=O)NCCCN3CCCC3=O)c(=O)[nH]c2c1` returned an RP-LC retention time of 623 s.
Then `CCOC(=O)CNC(=O)N1CC(CC)Oc2ccc(C)cc21` (centres undefined), with 935 s.
In turn, `COc1ccc(OC)c(NC(=O)Cn2c(-c3ccc(Cl)cc3)nc(C)cc2=O)c1` registered an RP-LC retention time of 1220 s.
The value for `Cc1cc(-c2nnc3sc(COc4ccc(F)cc4)nn23)n[nH]1` was 727 s.
Then `CC(C)CCn1c(=O)oc2ccccc21`, with 928 s; and `COc1cc(C(=O)NCCc2c[nH]c3ccc(F)cc23)cc(OC)c1OC`, with 781 s.
Then `c1cc2nnc(C3CCC3)n2nc1N1CCCC1`, with 920 s.
Turning to `Cc1ccc(C)c(CNC(=O)C2CC(=O)N(c3ccc4oc(C)nc4c3)C2)c1` (centres undefined), the RP-LC retention time was 753 s.
The value for `CCOc1ccc(N2C(=O)C3N=NN(Cc4nc(-c5ccccc5)no4)C3C2=O)cc1` (centres undefined) was 885 s; that for `Cc1ccc(Nc2c(-c3ccc([N+](=O)[O-])cc3)nc3ccc(C)cn23)cc1` was 838 s.
Regarding `COc1ccc(NC(=O)Cn2nc3cc(C)nc(Nc4ccc(F)c(C)c4)n3c2=O)cc1`, the RP-LC retention time came out at 1070 s.
Then `CCOc1ccc(C2Cn3nnc(-c4nc(-c5ccncc5)no4)c3CO2)cc1` (centres undefined), with 958 s; and `CCOc1ccc(C(=O)N(c2ccccc2CC)C2C=CS(=O)(=O)C2)cc1OCC` (centres undefined), with 840 s; and `CCOCCCNC(=O)CN1c2ccc(CC)cc2-c2ccccc2S1(=O)=O`, with 926 s.
Then `Fc1ccc(-c2noc(-c3nnc(NCCCN4CCOCC4)c4ccccc34)n2)cc1`, with 700 s; and `CC1CCN(S(=O)(=O)c2cccn(CC#N)c2=O)CC1`, with 749 s; and `CS(=O)(=O)N1CCCC1C(=O)N1CCCC1` (centres undefined), with 584 s.
Then `COc1cc(OC)c(NC(=O)NC2(c3nc(C)no3)CCCCC2)cc1Cl`, with 858 s.
`Cc1cnc(C2CCOCC2)n1CC1CN(C(=O)C2CC=CC2)C1` had an RP-LC retention time of 568 s.
With `OC1(c2ccccn2)CCOC2(CCN(Cc3cccc(C(F)(F)F)c3)CC2)C1` (centres undefined), the RP-LC retention time turned out to be 592 s.
As for `Cn1cc(-c2nc(C(=O)Nc3ccc(Cl)cc3)cs2)c2cccnc21`, the RP-LC retention time was 1090 s.
Then `CC(=O)Nc1ccc(-c2noc(C3CCCN(C(=O)Cc4ccc(Br)cc4)C3)n2)cc1` (centres undefined), with 872 s.
The value for `O=C(c1cc(S(=O)(=O)N2CCCC(C(=O)N3CCOCC3)C2)c[nH]1)N1CCCC1` (centres undefined) was 638 s; that for `CCOc1cccc(C2CC(c3ccc4c(c3)OCO4)=NC3(CCN(C(C)C)CC3)N2)c1O` (centres undefined) was 600 s.
Regarding `COc1cccc(-c2nc3cnccn3c2NCCC(=O)NC2CCCCC2)c1`, the RP-LC retention time amounted to 710 s.
As to `CC(C)n1cnc(S(=O)(=O)N2CCC(C(=O)NCc3ccc(F)cc3)CC2)c1`, the RP-LC retention time is 721 s.
Then `CCC(C(=O)Nc1ccc2c(c1)OCO2)n1cnc2nc3c(cc2c1=O)CCCC3` (centres undefined), with 773 s; and `O=C(C1CCOCC1)N1CCC(c2noc(-c3ccccn3)n2)C1` (centres undefined), with 599 s.
For `Cc1cc(C)c2c(N3CCSCC3)nc(C(=O)N3CCN(CC(C)C)CC3)nc2n1`, the RP-LC retention time was 580 s.
The value for `COc1ccc2nc(-c3ccc(Cl)cc3)cc(C(=O)O)c2c1` was 1090 s.
The value for `COc1ccc(-c2nnc(Cc3nc(-c4ccc(F)cc4)no3)o2)cc1` was 954 s; that for `Cc1cc(F)ccc1NS(=O)(=O)c1ccc(-c2c(C)noc2C)cc1` was 964 s.
`Brc1ccc(-c2ccc(CNCc3ccc4c(c3)OCO4)o2)cc1` returned an RP-LC retention time of 776 s.
Then `O=C(Cn1c(-c2cccs2)nc2ccccc21)NC1CC1`, with 596 s; and `Cc1ccc2c(C(=O)NCC(C)C)cc(NC(=O)C3CCC3)cc2n1`, with 613 s; and `O=C(c1ccoc1)N1CCC(Oc2nccnc2N2CCc3ccccc32)C1` (centres undefined), with 880 s.
The value for `CCOC(=O)c1c(C)[nH]c(CCC(=O)NCCN2CCCCC2)c1C` was 607 s; that for `CCOC(=O)CNC(=O)N1CCCC1c1ccc(F)cc1` (centres undefined) was 760 s; that for `CSc1cccc(NC(=O)Cn2c(=O)n(C3CC3)c(=O)c3nscc32)c1` was 705 s.
The value for `Cc1[nH]c(C(=O)Nc2ccc(F)cc2)c(C)c1S(=O)(=O)N1CCCC1` was 845 s; that for `Cc1ccc2c(=O)c3c([nH]c2c1C)CCN(CC(=O)Nc1ccc(F)c(Cl)c1)C3` was 665 s; that for `CCN1c2ccc(F)cc2C(=O)NC12CCN(C(=O)c1ccccc1OC)CC2` was 759 s.
On to `CCOC(=O)C1CCN(C(=O)C2CCN(c3ccc(N4CCCC4)nn3)CC2)CC1`, for which the RP-LC retention time was found to be 628 s.
In turn, `CCOc1ccc(N2CC(c3nc(-c4ccc(OC)cc4)no3)CC2=O)cc1` (centres undefined) showed an RP-LC retention time of 972 s.
Then `Cc1nc2scc(C)n2c(=O)c1S(=O)(=O)N1CCN(c2ccccn2)CC1`, with 584 s.
Then `Cc1noc(-c2cc(=O)n(CC(=O)NCc3cccs3)c3ccccc23)n1`, with 795 s; and `Cc1ccc(NC(=O)N2C[C@H](c3nc(-c4ccncc4)no3)[C@@H](C)C2)c(C)c1`, with 797 s; and `Cc1nn(CC(=O)NCc2ccco2)c(=O)c2nc(-c3ccccc3)sc12`, with 782 s.
Then `CS(=O)(=O)N1CCC(CNC(=O)C(=O)Nc2cc(Cl)ccc2C#N)CC1`, with 743 s; and `O=C(NC1CCCCCC1)c1ccc2ccnc(N3CCN(c4ccccc4)CC3)c2c1`, with 922 s; and `CCOc1ccc(-n2c(=O)c3sccc3n(Cc3nc(-c4ccc(C)cc4)no3)c2=O)cc1`, with 1090 s.
On to `COc1ccc(-c2ccnc3nc(CCc4ccccc4)nn23)cc1OC`, for which the RP-LC retention time turned out to be 879 s.
The value for `CCS(=O)(=O)c1nc2ccc(NS(=O)(=O)c3cccc(Cl)c3)cc2s1` was 928 s.
The value for `Cc1ccc(NC(=O)CCc2nc(-c3ccc(N4CCCC4)cc3)no2)c(Br)c1` was 1170 s.
In turn, `Cc1nc2ccn(Cc3cccnc3)c(=O)c2cc1C(=O)NC1CCCCC1` gave an RP-LC retention time of 620 s.
As for `Cc1ccc(NS(=O)(=O)c2cn(CC(C)C)c3ncccc23)c(F)c1`, the RP-LC retention time was 986 s.
The value for `COc1ccc(CCO[C@@H]2CCCC[C@H]2N2CC[C@@H](O)C2)cc1OC` was 684 s; that for `COc1cccc(CNC(=O)C2(C)CCCN(S(=O)(=O)c3ccccc3C)C2)c1` (centres undefined) was 957 s.
As for `Cc1ccc(CNC(=O)c2ccc3c(c2)CC(=O)N3C)cc1`, the RP-LC retention time came to 730 s.
Then `CN1CCN(c2c(C(=O)c3ccccc3)cnc3cc4c(cc23)OCCO4)CC1`, with 551 s; and `O=C(CCc1nc(-c2ccc(N3CCCC3)cc2)no1)NCc1ccc2c(c1)OCO2`, with 979 s.
Then `CCN1CCN(c2c(S(=O)(=O)c3ccc(Cl)cc3)cnc3cc(OC)c(OC)cc23)CC1`, with 634 s.
Regarding `Nc1nc(Nc2ccccc2)nc2c1ncn2[C@@H]1O[C@H](CO)[C@H](O)C1O` (some centres undefined), the RP-LC retention time is 579 s.
Then `Cc1ccc(NC(=O)C2CC(=O)N(CCc3c[nH]c4ccc(Cl)cc34)C2)cc1` (centres undefined), with 884 s; and `Cc1ccc(NS(=O)(=O)c2cc3n(c2)CCCN(C)C3=O)c(F)c1`, with 684 s; and `CCC1Oc2ccc(S(=O)(=O)N3CCC(C(=O)NCc4ccccc4)CC3)cc2NC1=O` (centres undefined), with 824 s.
The value for `COc1ccc(OC)c(CNC(=O)C2CCCN(c3nccnc3Sc3ccccc3)C2)c1` (centres undefined) was 1000 s; that for `O=C1CC(c2cccc(Cl)c2)Cc2c1cnn2-c1nc2ccccc2[nH]1` (centres undefined) was 1030 s.
`CC(C)S(=O)(=O)c1cc2c(cc1NC(=O)c1ccc(C(F)(F)F)cc1)n(C)c(=O)n2C` registered an RP-LC retention time of 896 s.
The compound `CC(=O)[C@H]1CC[C@H]2[C@@H]3CCC4=CC(=O)C=C[C@]4(C)[C@H]3C(=O)C[C@]12C` returned an RP-LC retention time of 921 s.
Consider `COc1ccc(-c2nnc(-c3ccc(C)c(S(=O)(=O)NC(C)(C)C)c3)o2)cc1OC`, for which the RP-LC retention time worked out at 941 s.
In turn, `Cc1cccc(NC(=O)C2CCN(S(=O)(=O)c3c(C)[nH]c(C)c3C(=O)N3CCCCC3)CC2)n1` displayed an RP-LC retention time of 642 s.
Then `Cc1cccc(CNC(=O)c2ccc3ncnc(N4CCCC4)c3c2)c1`, with 647 s; and `O=C(NCc1ccc(Cl)cc1)C(=O)NCC1(c2cccs2)CCCC1`, with 1120 s; and `Cn1cccc1C(=O)N1CCC(OCc2nc(C3CC3)no2)CC1`, with 799 s.
Then `CCOC(=O)c1nc(NCc2ccc(F)cc2)c2ccccc2n1`, with 931 s; and `Cc1ccc(CNC(=O)Cn2c(C)cc(-c3nnc(-c4ccccc4)o3)c2C)cc1`, with 949 s; and `COC(=O)c1cccc(NC(=O)CSc2cc(N3CCN(c4ccccc4OC)CC3)ncn2)c1`, with 926 s.
The value for `Cc1cc(C)c(S(=O)(=O)N2CCC3(CC2)NCCN=C3NCc2ccccc2C)c(C)c1` was 854 s.
